Measurements reported in PubChem BioAssay (NCI).
Several values for one entry are separate records, joined by “and”; a condition that tells them apart may be missing. Identical values can stand only once.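 A five-concentration, 48-hour dose response in 96-well plates underlies each endpoint, interpolated linearly between surrounding concentrations. GI50 = concentration required for 50% inhibition of growth. TGI is the concentration that stops growth completely.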

How the values were obtained:
Assay in all cases: NCI anticancer screen, dose series, 48 h
EKVX NSCLC = tested on: EKVX NSCLC
CCRF-CEM leukemia = tested on: CCRF-CEM leukemia
RPMI-8226 leukemia = tested on: RPMI-8226 leukemia
HOP-62 NSCLC = tested on: HOP-62 NSCLC
OVCAR-4 ovarian = tested on: OVCAR-4 ovarian
U251 CNS = tested on: U251 CNS
HCT-116 colon = tested on: HCT-116 colon
M14 melanoma = tested on: M14 melanoma
ACHN renal = tested on: ACHN renal
SK-OV-3 ovarian = tested on: SK-OV-3 ovarian
NCI/ADR-RES ovarian = tested on: NCI/ADR-RES ovarian
HL-60(TB) leukemia = tested on: HL-60(TB) leukemia
CAKI-1 renal = tested on: CAKI-1 renal
HT29 colon = tested on: HT29 colon
HS 578T breast = tested on: HS 578T breast

| Structure (SMILES) | TGI (EKVX NSCLC) | TGI (CCRF-CEM leukemia) | TGI (RPMI-8226 leukemia) | TGI (HOP-62 NSCLC) | TGI (OVCAR-4 ovarian) | TGI (U251 CNS) | TGI (HCT-116 colon) | TGI (M14 melanoma) | TGI (ACHN renal) | TGI (SK-OV-3 ovarian) | TGI (NCI/ADR-RES ovarian) | TGI (HL-60(TB) leukemia) | TGI (CAKI-1 renal) | TGI (HT29 colon) | TGI (HS 578T breast) | GI50 (EKVX NSCLC) | GI50 (CCRF-CEM leukemia) | GI50 (RPMI-8226 leukemia) | GI50 (HCT-116 colon) | GI50 (HL-60(TB) leukemia) |
| --- | --- | --- | --- | --- | --- | --- | --- | --- | --- | --- | --- | --- | --- | --- | --- | --- | --- | --- | --- | --- |
| COC(=O)/C=C/C1(O)C=CC(=O)C=C1 | 10.4 µM | 10.7 µM | > 100 µM | 14.4 µM | 15.6 µM | > 26.5 µM | 3.73 µM | 3.78 µM | 5.25 µM | 42.2 µM | > 68.2 µM | 6.8 µM | 4.46 µM |  |  |  |  |  |  |  |
| CC(C)(C)C1=CC(=C2C(=O)C(=O)c3ccccc3C2=O)C=C(C(C)(C)C)C1=O | > 100 µM | > 100 µM | 86.9 µM | > 100 µM |  | > 100 µM | > 100 µM | > 100 µM | > 100 µM | > 100 µM |  | > 100 µM | > 100 µM | > 100 µM |  |  |  |  |  |  |
| CC(C)(CCCCC(C)(C)[N+](C)(C)C)[N+](C)(C)C | > 100 µM | > 100 µM | > 100 µM | > 100 µM | > 100 µM | > 100 µM | > 100 µM | > 100 µM |  | > 100 µM | > 100 µM | > 100 µM |  | > 100 µM | > 100 µM |  |  |  |  |  |
| O=C(OCc1ccccc1)N(CCCCN(CCCNCc1ccccc1)C(=O)OCc1ccccc1)CCCNCc1ccccc1 | 2.94 µM |  | 0.605 µM |  |  |  | 0.384 µM |  | 2.93 µM | > 100 µM | 3.43 µM | 0.507 µM | 2.93 µM | 0.663 µM |  |  |  |  |  |  |
| O=C1CC(=O)NC(=NNS(=O)(=O)c2ccccc2)N1 |  | > 100 µM | > 100 µM | > 100 µM | > 100 µM | > 100 µM | > 100 µM | > 100 µM | > 100 µM | > 100 µM | > 100 µM |  | > 100 µM | > 100 µM | > 100 µM |  |  |  |  |  |
| COc1ccc(C2C3CCc4ccccc4C3=NN2S(=O)(=O)c2ccc(/C=C/C(=O)O)cc2)cc1 (configuration not stated) | > 100 µM | 22.9 µM | 16 µM | > 100 µM | 54.1 µM | 11.6 µM | 38.2 µM | > 100 µM | 14.1 µM | 4.72 µM |  | 9.67 µM | > 100 µM | 13.6 µM |  |  |  |  |  |  |
| CC(=O)Nc1nnc(S(C)(=O)=O)s1 | > 100 µM | > 100 µM | > 100 µM | > 100 µM |  | > 100 µM | > 100 µM | > 100 µM | > 100 µM |  | > 100 µM | > 100 µM |  | > 100 µM |  |  |  |  |  |  |
| C=C[C@]1(C)CCC2=C(CCC3C2(C)CCC[C@@]3(C)COC(C)=O)C1 (some centres not stated) | 36.8 µM | 35.4 µM | 35.6 µM | 40.2 µM | > 100 µM | 31.7 µM | 30.9 µM | 40.3 µM | 38.7 µM | 33 µM |  | 36.4 µM | 37.6 µM | 33.9 µM |  |  |  |  |  |  |
| COC(=O)C1=C(C)C=C(N2CCOCC2)C(C(=O)OC)C1c1ccccc1 (configuration not stated) | > 10 µM | > 10 µM | > 10 µM | > 10 µM | > 10 µM | > 10 µM | > 10 µM | > 10 µM | > 10 µM | > 10 µM | > 10 µM |  | > 10 µM | > 10 µM | > 10 µM |  |  |  |  |  |
| Nc1cc(=O)n(-c2ccccc2)c(=S)n1-c1ccccc1 | > 100 µM | > 100 µM | > 100 µM | > 100 µM |  | > 100 µM | > 100 µM | > 100 µM | > 100 µM | > 100 µM |  |  | > 100 µM | > 100 µM |  |  |  |  |  |  |
| COC(=O)C1(C(=O)OC)N=C(C)OC1/C=C/c1ccccc1 (configuration not stated) | > 100 µM | > 100 µM | > 100 µM | > 100 µM | > 100 µM | > 100 µM | > 100 µM | > 100 µM | > 100 µM | > 100 µM | > 100 µM | > 100 µM | > 100 µM |  |  |  |  |  |  |  |
| CN(c1cn(C2CC[C@@H](CO)O2)c(=O)[nH]c1=O)C1CCCCC1 (some centres not stated) |  | > 100 µM | > 100 µM | > 100 µM | > 100 µM | > 100 µM | > 100 µM | > 100 µM | > 100 µM | > 100 µM | > 100 µM | > 100 µM |  | > 100 µM | > 100 µM |  |  |  |  |  |
| Cc1cc(S(=O)(=O)/N=C(/[N-]S(=O)(=O)c2ccc(Cl)cc2)[n+]2ccc(N(C)C)cc2)c(SCC(=O)O)cc1Cl | > 100 µM | > 100 µM | > 100 µM | 46.2 µM | > 100 µM | > 100 µM | > 100 µM | > 100 µM | > 100 µM | > 100 µM |  | > 100 µM | > 100 µM | > 100 µM | > 100 µM |  |  |  |  |  |
| CN1CCN(c2ccc3nc(-c4ccc5nc(-c6ccc(O)cc6)[nH]c5c4)[nH]c3c2)CC1 | 489 µM | 381 µM | 648 µM | 1040 µM | 609 µM | 799 µM | 512 µM | 493 µM | 666 µM | 948 µM | 786 µM | 148 µM | 306 µM | 295 µM |  | 257 µM | 12.9 µM (2×) and 15.4 µM | 183 µM | 5.66 µM and 30.5 µM | 9.03 µM and 24.3 µM |
| O=C1CSC(c2c[nH]c3ccccc23)N1c1ccccc1[N+](=O)[O-] (configuration not stated) | > 100 µM | > 100 µM | > 100 µM | > 100 µM | > 100 µM | > 100 µM | > 100 µM | > 100 µM |  | > 100 µM |  | > 100 µM |  | > 100 µM |  |  |  |  |  |  |
| C1CC[C@H]2SSC3CCCC[C@H]3SSC2C1 (some centres not stated) | > 100 µM | > 100 µM | > 100 µM | > 100 µM | > 100 µM | > 100 µM | > 100 µM | > 100 µM |  | > 100 µM | > 100 µM | > 100 µM |  | > 100 µM |  |  |  |  |  |  |
| COc1cc(C2C(Cl)C(=O)N2NC(=O)c2ccc(N)cc2)cc(Br)c1O (configuration not stated) | 31 µM | 12.1 µM | 51.5 µM | 28.9 µM | 35.1 µM | 10.1 µM | 22.3 µM | 29.2 µM | 45.1 µM | 73 µM |  | 27.6 µM | 30.7 µM | 41.9 µM |  |  |  |  |  |  |
